According to US11530205B2, “GLP-1 receptor modulators” (RECEPTOS LLC, priority 2017, dated 2022):

Target: T1, Human GLP-1R (Homo sapiens, UniProt P43220)
T1 construct: expressed in transfected cells; host or cells: CRE-bla CHO-K1 (Chinese hamster ovary) cells
Test: EC20 GLP-1(9-36) PAM cAMP assay: dose response of compound in the presence of fixed concentration of GLP-1(9-36)
Assay type: cell-based
Conditions: Human GLP-1R CRE-bla CHO-K1 cells, 60 nM GLP-1(9-36), 30 minutes at 37° C.
Protocol: EC20GLP-1(9-36) PAM cAMP Assay: Dose Response of Compound in the Presence of Fixed Concentration of GLP-1 (9-36)
Human GLP-1R CRE-bla CHO-K1 cells were cultured in growth medium (DMEM-High glucose, 10% dialyzed FBS, 0.1 mM NEAA, 25 mM Hepes, 100 U/mL penicillin/100 μg/mL streptomycin, 5 μg/mL Blasticidin, 600 μg/mL Hygromycin), trypsinized and plated in suspension into 384-well white flat bottom plates at 5000 cells/well in 12 μL assay buffer (Hank's Balanced Salt Solution, 10 mM Hepes, 0.1% BSA, pH 7.4). Each compound at a 5× concentration was diluted to a final concentration range of 10 to 0.01 μM (11 points) in assay buffer containing 1.5 mM IBMX and 4% DMSO. GLP-1(9-36) was diluted from 4.2 μM (30 x) to a final assay concentration of 60 nM in assay buffer containing 1.5 mM IBMX and 4% DMSO. Each compound concentration (5×) was added (3 μL), followed by 0.5 μL of GLP-1(9-36) and cells incubated for 30 minutes at 37° C. The peptide was added to the wells using siliconized tips. The reaction was stopped and levels of cAMP were quantified using the DiscoverX HitHunter cAMP kit according to the manufacturer's instructions and luminescence was detected using a SpectraMax M5 Multi-Mode Microplate reader. Luminescence was converted to total cAMP using a cAMP standard curve and data were analyzed by non-linear regression to determine the EC50 and Emax for each compound.

T1 sequence (P43220 24-463): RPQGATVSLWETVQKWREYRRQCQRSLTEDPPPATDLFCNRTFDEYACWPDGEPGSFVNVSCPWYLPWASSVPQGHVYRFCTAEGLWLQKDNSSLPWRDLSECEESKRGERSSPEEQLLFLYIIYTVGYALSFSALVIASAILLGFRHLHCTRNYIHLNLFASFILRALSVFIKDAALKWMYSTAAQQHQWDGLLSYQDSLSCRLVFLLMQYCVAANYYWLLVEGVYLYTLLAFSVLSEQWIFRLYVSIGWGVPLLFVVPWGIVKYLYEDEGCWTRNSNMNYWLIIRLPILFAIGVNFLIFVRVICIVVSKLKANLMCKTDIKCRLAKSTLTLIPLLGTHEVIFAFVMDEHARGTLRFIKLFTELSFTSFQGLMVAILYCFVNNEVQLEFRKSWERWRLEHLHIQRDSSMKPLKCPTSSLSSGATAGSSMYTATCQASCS

SMILES | EC50
CC[C@H]1CC[C@H](C2CC=C(c3cnc(-c4ccc(CN(CC(=O)N5CC[C@H](C(=O)O)C5)C(=O)c5ccc(NC(=O)Cc6ccc(OC)cc6C(F)(F)F)cc5)cc4)nc3)CC2)CC1 (stereo partly drawn) [Compound 15] | < 800 nM
COc1ccc(CC(=O)Nc2ccc(C(=O)N(CC(=O)O)Cc3ccc(-c4cnc(C5=CCC(C(C)C)CC5)cn4)cc3)cc2)cc1 (stereo not drawn) [Compound 88] | 800 to 2500 nM
CC[C@H]1CC[C@@H]([C@@H]2CC=C(c3cnc(-c4ccc(CN(CC(=O)O)C(=O)CNC(=O)Cc5ccc(OC)cc5)cc4)nc3)CC2)CC1 [Compound 118] | 800 to 2500 nM

The next lines start with the values.

EC50 | SMILES
2500 to 5000 nM | COc1ccc(CC(=O)Nc2ccc(C(=O)N(CC(=O)O)Cc3ccc(-c4ncc(C5=CCC(C(C)(C)C)CC5)cn4)cc3)cc2)c(C(F)(F)F)c1 (stereo not drawn) [Compound 77]
< 800 nM | CC[C@H]1CC[C@H](C2CC=C(c3cnc(-c4ccc(CN(CC(=O)O)C(=O)c5ccc(NC(=O)CCc6ccc(OC)cc6)cc5)cc4)nc3)CC2)CC1 (stereo partly drawn) [Compound 93]
< 800 nM | CC[C@H]1CC[C@H](C2CC=C(c3cnc(-c4ccc(CN(CC(=O)O)C(=O)CCC(=O)CN5c6cccc7cccc(c67)S5(=O)=O)cc4)nc3)CC2)CC1 (stereo partly drawn) [Compound 127]
